# Measurements from patent US20250296971A1, “GASTRIC INHIBITORY PEPTIDE RECEPTOR LIGANDS” (priority 2021, published 2025).
# *1 amine or outer side, *2 acyl side, *3 side chain or, on linkers, in order; H or OH if unused. Where a SMILES comes first, the peptide text is derived from it. Bridges are numbered along the chain shown (N, C = ends). [ ]: non-standard residue; d: D form. The star is where a group is joined. TBMB(SCH2CH2NH-DOTA) = O=C(O)CN1CCN(CC(=O)O)CCN(CC(=O)NCCSCc2cc(C[*:1])cc(C[*:2])c2)CCN(CC(=O)O)CC1; X5 = NC(=O)[C@H](CCCCNC(=O)CN1CCN(CC(=O)O)CCN(CC(=O)O)CCN(CC(=O)O)CC1)NC(=O)CCC(=O)NCCCOCCOCCOCCCN*; X19 = O=C(O)CN1CCN(CC(=O)O)CCN(CC(=O)N2CCN(Cc3cc(C[*:1])cc(C[*:2])c3)CC2)CCN(CC(=O)O)CC1; X3 = O=C(O)CN1CCN(CC(=O)O)CCN(CC(=O)NCCCOCCOCCOCCCN*)CCN(CC(=O)O)CC1; DOTA = O=C(O)CN1CCN(CC(=O)O)CCN(CC(=O)*)CCN(CC(=O)O)CC1; Trp(5-Cl) = N[C@@H](Cc1c[nH]c2ccc(Cl)cc12)C(=O)O; Trp(6-Cl) = N[C@@H](Cc1c[nH]c2cc(Cl)ccc12)C(=O)O; Trp(6-F) = N[C@@H](Cc1c[nH]c2cc(F)ccc12)C(=O)O; mXylylene = c1cc(C[*:1])cc(C[*:2])c1; X6 = c1cc(CSCCN[*:2])nc(C[*:1])c1; X7 = c1cc(CSCCN[*:2])cc(C[*:1])c1; Hyp = O=C(O)[C@@H]1C[C@@H](O)CN1; X1 = O=C(CN1CCC(N[*:1])CC1)[*:2]; Suc = O=C(CCC(=O)[*:2])[*:1]; Thp = NC1(C(=O)O)CCOCC1; Aib = CC(C)(N)C(=O)O
# Target: T1, GIPR (CHO-K1-hGIPR cells) (Homo sapiens, UniProt P48546)
# T1 construct: host or cells: CHO-K1
# T1 sequence (P48546 22-466): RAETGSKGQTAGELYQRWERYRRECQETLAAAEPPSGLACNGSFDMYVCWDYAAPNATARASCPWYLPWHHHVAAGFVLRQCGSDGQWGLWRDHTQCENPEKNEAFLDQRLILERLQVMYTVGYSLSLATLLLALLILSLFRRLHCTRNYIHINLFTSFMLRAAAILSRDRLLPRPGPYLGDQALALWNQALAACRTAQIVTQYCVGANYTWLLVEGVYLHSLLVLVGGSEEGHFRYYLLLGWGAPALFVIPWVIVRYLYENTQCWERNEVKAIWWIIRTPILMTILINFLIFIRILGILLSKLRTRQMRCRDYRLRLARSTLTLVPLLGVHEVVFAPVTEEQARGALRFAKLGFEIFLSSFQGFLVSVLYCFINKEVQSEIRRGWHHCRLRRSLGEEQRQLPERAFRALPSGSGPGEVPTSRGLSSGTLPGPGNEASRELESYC
# Assay: FACS binding assay
# Conditions: competition with 20 nM GIP-057, 4° C. for 1 hour, read-out: pIC50 Category (converted)
# Outline: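 Median fluorescence in the APC channel, measured on washed CHO-K1 cells overexpressing human GIPR, was fitted by four-parameter logistic regression against peptide concentration to yield EC50 or IC50 values. Secondary labelling used APC-streptavidin (1 μg/mL, 30 min, ice).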
row,Structure (SMILES),IC50
1,"CC[C@H](C)[C@@H]1NC(=O)[C@H](CC(C)C)NC(=O)C(C)(C)NC(=O)[C@@H](NC(=O)[C@@H](CC(C)C)NC(=O)[C@H](CCC(=O)O)NC(=O)[C@@H]2CCCN2C(=O)[C@H](Cc2c[nH]c3cc(Cl)ccc23)NC(=O)[C@H](Cc2c[nH]c3ccccc23)NC(=O)[C@H](CC(=O)O)NC(C)=O)CSCc2cccc(c2)CSC[C@@H](C(=O)NCCCOCCOCCOCCCNC(=O)CCC(=O)N[C@@H](CCCCNC(=O)CN2CCN(CC(=O)O)CCN(CC(=O)O)CCN(CC(=O)O)CC2)C(N)=O)NC1=O [GIP-282, Ac-Asp-Trp-6Clw-Pro-Glu-leu-[Cys(3MeBn)-Aib-Leu-Ile-Cys]-Ttds-Lys(DOTA)-NH2] (Ac-DW[Trp(6-Cl)]PE[dL]C[Aib]LIC-X5; linker 7-11 via mXylylene)",100 to 794 nM
2,"CC[C@H](C)[C@@H]1NC(=O)[C@H](CC(C)C)NC(=O)C(C)(C)NC(=O)[C@@H](NC(=O)[C@@H](CC(C)C)NC(=O)[C@H](CCC(=O)O)NC(=O)[C@@H]2CCCN2C(=O)[C@H](Cc2c[nH]c3ccccc23)NC(=O)[C@H](Cc2c[nH]c3cc(F)ccc23)NC(=O)[C@H](CC(=O)O)NC(=O)CCC(=O)NCCCOCCOCCOCCCNC(=O)CN2CCN(CC(=O)O)CCN(CC(=O)O)CCN(CC(=O)O)CC2)CSCc2cccc(c2)CSCCNC1=O [GIP-283, DOTA-Ttds-Asp-6Fw-Trp-Pro-Glu-leu-[Cys(3MeBn)-Aib-Leu-Ile-AET]] ({X3-Suc}-D[Trp(6-F)]WPE[dL]C[Aib]LI; linker 7-C via X7)",100 to 794 nM
3,"CC[C@H](C)[C@@H]1NC(=O)[C@H](CC(C)C)NC(=O)C2(CCOCC2)NC(=O)[C@@H](NC(=O)[C@@H](CC(C)C)NC(=O)[C@H](CCC(=O)O)NC(=O)[C@@H]2C[C@@H](O)CN2C(=O)[C@H](Cc2c[nH]c3ccc(Cl)cc23)NC(=O)CNC(=O)[C@H](CC(=O)O)NC(=O)CN2CCC(NC(=O)CN3CCN(CC(=O)O)CCN(CC(=O)O)CCN(CC(=O)O)CC3)CC2)CSCc2cccc(n2)CSCCNC1=O [GIP-284, DOTA-APAc-Asp-Gly-5Clw-Hyp-Glu-leu-[Cys(2Lut)-Thp-Leu-Ile-AET]] ({DOTA}-[X1]DG[Trp(5-Cl)][Hyp]E[dL]C[Thp]LI; linker 8-C via X6)",100 to 794 nM
4,"CC[C@H](C)[C@@H]1NC(=O)[C@H](CC(C)C)NC(=O)[C@@H](C)NC(=O)[C@@H](NC(=O)[C@@H](CC(C)C)NC(=O)[C@H](CCC(=O)O)NC(=O)[C@@H]2CCCN2C(=O)[C@H](Cc2c[nH]c3ccccc23)NC(=O)[C@H](Cc2c[nH]c3ccccc23)NC(=O)[C@H](CC(=O)O)NC(=O)CCC(=O)NCCCOCCOCCOCCCNC(=O)CN2CCN(CC(=O)O)CCN(CC(=O)O)CCN(CC(=O)O)CC2)CSCc2cccc(c2)CSC[C@@H](C(=O)O)NC1=O [GIP-285, DOTA-Ttds-Asp-Trp-Trp-Pro-Glu-leu-[Cys(3MeBn)-ala-Leu-Ile-Cys]-OH] ({X3-Suc}-DWWPE[dL]C[dA]LIC-OH; linker 7-11 via mXylylene)",> 1000 nM
5,"CC[C@H](C)[C@@H]1NC(=O)[C@H](CC(C)C)NC(=O)[C@@H](C)NC(=O)[C@@H](NC(=O)[C@@H](CC(C)C)NC(=O)[C@H](CCC(=O)O)NC(=O)[C@@H]2CCCN2C(=O)[C@H](Cc2c[nH]c3ccccc23)NC(=O)[C@H](Cc2c[nH]c3ccccc23)NC(=O)CCC(=O)O)CSCc2cc(cc(CN3CCN(C(=O)CN4CCN(CC(=O)O)CCN(CC(=O)O)CCN(CC(=O)O)CC4)CC3)c2)CSC[C@@H](C(N)=O)NC1=O [GIP-286, HO-Succinyl-Trp-Trp-Pro-Glu-leu-[Cys(tMeBn(DOTA-PP))-ala-Leu-Ile-Cys]-NH2] (Suc-WWPE[dL]C[dA]LIC-NH2; linker 6-10 via X19)",> 1000 nM
6,"CC[C@H](C)[C@@H]1NC(=O)[C@H](CC(C)C)NC(=O)[C@@H](C)NC(=O)[C@@H](NC(=O)[C@@H](CC(C)C)NC(=O)[C@H](CCC(=O)O)NC(=O)[C@@H]2CCCN2C(=O)[C@H](Cc2c[nH]c3ccccc23)NC(=O)[C@H](Cc2c[nH]c3ccccc23)NC(=O)CCC(=O)O)CSCc2cc(CSCCNC(=O)CN3CCN(CC(=O)O)CCN(CC(=O)O)CCN(CC(=O)O)CC3)cc(c2)CSC[C@@H](C(N)=O)NC1=O [GIP-287, HO-Succinyl-Trp-Trp-Pro-Glu-leu-[Cys(tMeBn(DOTA-AET))-ala-Leu-Ile-Cys]-NH2] (Suc-WWPE[dL]C[dA]LIC-NH2; linker 6-10 via TBMB(SCH2CH2NH-DOTA))",> 1000 nM
